From US8163724B2, “Glucocorticosteroids, processes for their preparation, pharmaceutical compositions containing them and their use in therapy” (AstraZeneca AB, priority 2007, dated 2012)

These molecules were tested against T1, recombinant human GR (Homo sapiens, UniProt P04150) (assay: Human Glucocorticoid Receptor (GR) Assay (fluorescence polarization, Panvera/Invitrogen kit)). Conditions: fluorescence polarization; GS Red tracer; 2 hours at room temperature; 100% control 10 μM Dexamethasone; read-out: Inhibition of GR binding, IC50.
T1 construct: purchased Panvera/Invitrogen P2812 (kit P2893)
T1 sequence (P04150 1-777): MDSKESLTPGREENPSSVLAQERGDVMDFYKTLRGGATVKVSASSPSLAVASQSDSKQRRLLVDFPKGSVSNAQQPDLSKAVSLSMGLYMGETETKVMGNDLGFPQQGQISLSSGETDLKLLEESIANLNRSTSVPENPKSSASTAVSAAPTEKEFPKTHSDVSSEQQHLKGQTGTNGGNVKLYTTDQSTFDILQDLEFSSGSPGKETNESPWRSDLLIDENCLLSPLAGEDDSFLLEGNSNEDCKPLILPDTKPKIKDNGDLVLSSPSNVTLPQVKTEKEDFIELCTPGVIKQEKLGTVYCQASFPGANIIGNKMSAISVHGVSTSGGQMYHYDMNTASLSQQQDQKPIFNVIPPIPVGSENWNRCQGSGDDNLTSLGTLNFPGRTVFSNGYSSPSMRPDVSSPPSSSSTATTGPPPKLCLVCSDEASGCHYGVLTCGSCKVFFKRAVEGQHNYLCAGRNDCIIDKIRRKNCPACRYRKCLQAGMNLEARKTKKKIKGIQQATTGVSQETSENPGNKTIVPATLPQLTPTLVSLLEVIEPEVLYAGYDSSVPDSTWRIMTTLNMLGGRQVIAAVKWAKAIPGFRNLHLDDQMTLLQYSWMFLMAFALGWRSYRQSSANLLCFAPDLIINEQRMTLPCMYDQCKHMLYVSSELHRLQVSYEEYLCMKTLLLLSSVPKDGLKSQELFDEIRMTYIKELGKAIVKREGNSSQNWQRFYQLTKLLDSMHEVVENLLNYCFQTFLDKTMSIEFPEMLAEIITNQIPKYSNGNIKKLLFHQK
Type: binding
In short: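 Fluorescence polarization competition with recombinant GR and GS Red fluorescent ligand plus stabilizing peptide and DTT in potassium phosphate/sodium molybdate/EDTA buffer with DMSO. Incubated 2 hours at room temperature in the dark; 0% control DMSO, 100% control 10 μM dexamethasone.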
Molecule `CCSC(=O)COC(=O)[C@@]1(OC(C)=O)CC[C@H]2[C@@H]3CCC4=Cc5c(cnn5-c5ccc(F)cc5)C[C@]4(C)[C@H]3[C@@H](O)C[C@@]21C` [Example 121, 2-(Ethylsulfanyl)-2-oxoethyl(1R,3aS,3bS,10aR,10bS,11S,12aS)-1-(acetyloxy)-7-(4-fluorophenyl)-11-hydroxy-10a,12a-dimethyl-1,2,3,3a,3b,4,5,7,10,10a,10b,11,12,12a-tetradecahydrocyclopenta[5,6]naphtho[1,2-f]indazole-1-carboxylate] has an IC50 of 6.6 nM.
`CSCSC(=O)[C@@]1(OC(C)=O)CC[C@H]2[C@@H]3CCC4=Cc5c(cnn5-c5ccc(F)cc5)C[C@]4(C)[C@H]3[C@@H](O)C[C@@]21C` [Example 118, (1R,3aS,3bS,10aR,10bS,11S,12aS)-7-(4-Fluorophenyl)-11-hydroxy-10a,12a-dimethyl-1-({[(methylsulfanyl)methyl]sulfanyl}carbonyl)-1,2,3,3a,3b,4,5,7,10,10a,10b,11,12,12a-tetradecahydrocyclopenta[5,6]naphtho[1,2-f]indazol-1-yl acetate] was tested, and the IC50 was 18 nM.
For `CCC(=O)O[C@]1(C(=O)SCC#CCO)CC[C@H]2[C@@H]3CCC4=Cc5c(cnn5-c5ccc(F)cc5)C[C@]4(C)[C@H]3[C@@H](O)C[C@@]21C` [Example 18, (1R,3aS,3bS,10aR,10bS,11S,12aS)-7-(4-Fluorophenyl)-11-hydroxy-1-{[(4-hydroxy-but-2-yn-1-yl)thio]carbonyl}-10a,12a-dimethyl-1,2,3,3a,3b,4,5,7,10,10a,10b,11,12,12a-tetradecahydrocyclopenta[5,6]naphtho[1,2-f]indazol-1-yl propanoate], the IC50 was 4.1 nM.
With `COCC(=O)O[C@]1(C(=O)SCC#N)CC[C@H]2[C@@H]3CCC4=Cc5c(cnn5-c5ccc(F)c(CO)c5)C[C@]4(C)[C@H]3[C@@H](O)C[C@@]21C` [Example 140, (1R,3aS,3bS,10R,10bS,11S,12aS)-1-{[(Cyanomethyl)thio]carbonyl}-7-[4-fluoro-3-(hydroxymethyl)phenyl]-11a,12a-dimethyl-1,2,3,3a,3b,4,5,7,10,10a,10b,11,12,12a-tetradecahydrocyclopenta[5,6]naphtho[1,2-f]indazol-1-yl Methoxyacetate] the IC50 was 2.3 nM.
For `C[C@]12Cc3cnn(-c4ccc(F)cc4)c3C=C1CC[C@@H]1[C@@H]2[C@@H](O)C[C@@]2(C)[C@H]1CC[C@]2(OC(=O)C1CCOCC1)C(=O)SCC#N` [Example 126, (1R,3aS,3bS,10aR,10bS,11S,12aS)-1-{[(Cyanomethyl)sulfanyl]carbonyl}-7-(4-fluorophenyl)-11-hydroxy-10a,12a-dimethyl-1,2,3,3a,3b,4,5,7,10,10a,10b,11,12,12a-tetradecahydrocyclopenta[5,6]naphtho[1,2-f]indazol-1-yl tetrahydro-2H-pyran-4-carboxylate], the IC50 was 2.7 nM.
`C[C@]12Cc3cnn(-c4ccc(F)cc4)c3C=C1CC[C@H]1[C@@H]3CC[C@](OC(=O)c4cocn4)(C(=O)SCF)[C@@]3(C)C[C@H](O)[C@@]12F` [Example 202, (1R,3aS,3bS,10aS,10bR,11S,12aS)-1-{[(Fluoromethyl)sulfanyl]carbonyl}-10b-fluoro-7-(4-fluorophenyl)-11-hydroxy-10a,12a-dimethyl-1,2,3,3a,3b,4,5,7,10,10a,10b,11,12,12a-tetradecahydrocyclopenta[5,6]naphtho[1,2-f]indazol-1-yl 1,3-oxazole-4-carboxylate] gave an IC50 of 5.8 nM.
`CCOC(=O)O[C@]1(C(=O)SCC#N)CC[C@H]2[C@@H]3CCC4=Cc5c(cnn5-c5ccc(F)cc5)C[C@]4(C)[C@H]3[C@@H](O)C[C@@]21C` [Example 67, S-(Cyanomethyl)(1R,3aS,3bS,10aR,10bS,11S,12aS)-1-[(ethoxycarbonyl)oxy]-7-(4-fluorophenyl)-11-hydroxy-10a,12a-dimethyl-1,2,3,3a,3b,4,5,7,10,10a,10b,11,12,12a-tetradecahydrocyclopenta[5,6]naphtho[1,2-f]indazole-1-carbothioate] gave an IC50 of 38 nM.
`C[C@]12Cc3cnn(-c4ccc(F)nc4)c3C=C1CC[C@@H]1[C@@H]2[C@@H](O)C[C@@]2(C)[C@H]1CC[C@]2(OC(=O)C1CC1)C(=O)SCCO` [Example 155, (1R,3aS,3bS,10aR,10bS,11S,12aS)-7-(6-Fluoropyridin-3-yl)-11-hydroxy-1-{[(2-hydroxyethyl)sulfanyl]carbonyl}-10a,12a-dimethyl-1,2,3,3a,3b,4,5,7,10,10a,10b,11,12,12a-tetradecahydrocyclopenta[5,6]naphtho[1,2-f]indazol-1-yl cyclopropanecarboxylate] was tested, and the IC50 was 1.9 nM.
`CC(=O)O[C@]1(C(=O)SCC#N)CC[C@H]2[C@@H]3CCC4=Cc5c(cnn5-c5ccc(F)cc5)C[C@]4(C)[C@H]3[C@@H](O)C[C@@]21C` [Example 109, (1R,3aS,3bS,10aR,10bS,11S,12aS)-1-{[(Cyanomethyl)sulfanyl]carbonyl}-7-(4-fluorophenyl)-11-hydroxy-10a,12a-dimethyl-1,2,3,3a,3b,4,5,7,10,10a,10b,11,12,12a-tetradecahydrocyclopenta[5,6]naphtho[1,2-f]indazol-1-yl acetate] gave an IC50 of 4.1 nM.
For `C[C@]12Cc3cnn(-c4ccc(F)cc4)c3C=C1CC[C@@H]1[C@@H]2[C@@H](O)C[C@@]2(C)[C@H]1CC[C@]2(OC(=O)C1CCC1)C(=O)SCC#N` [Example 113, (1R,3aS,3bS,10aR,10bS,11S,12aS)-1-{[(Cyanomethyl)sulfanyl]carbonyl}-7-(4-fluorophenyl)-11-hydroxy-10a,12a-dimethyl-1,2,3,3a,3b,4,5,7,10,10a,10b,11,12,12a-tetradecahydrocyclopenta[5,6]naphtho[1,2-f]indazol-1-yl cyclobutanecarboxylate], the IC50 was 11 nM.
Work on `CC(=O)OCC(=O)O[C@]1(C(=O)SCC#N)CC[C@H]2[C@@H]3CCC4=Cc5c(cnn5-c5ccc(F)cc5)C[C@]4(C)[C@H]3[C@@H](O)C[C@@]21C` [Example 29, (1R,3aS,3bS,10aR,10bS,11S,12aS)-1-{[(Cyanomethyl)thio]carbonyl}-7-(4-fluoro-phenyl)-11-hydroxy-10a,12a-dimethyl-1,2,3,3a,3b,4,5,7,10,10a,10b,11,12,12a-tetradecahydrocyclopenta[5,6]naphtho[1,2-f]indazol-1-yl (acetyloxy)acetate] yielded an IC50 of 5.7 nM.
Work on `COCC(=O)O[C@]1(C(=O)SCC#N)CC[C@H]2[C@@H]3CCC4=Cc5c(cnn5-c5ccc(F)nc5)C[C@]4(C)[C@@]3(F)[C@@H](O)C[C@@]21C` [Example 205, (1R,3aS,3bS,10aS,10bR,11S,12aS)-1-{[(Cyanomethyl)sulfanyl]carbonyl}-10b-fluoro-7-(6-fluoropyridin-3-yl)-11-hydroxy-10a,12a-dimethyl-1,2,3,3a,3b,4,5,7,10,10a,10b,11,12,12a-tetradecahydrocyclopenta[5,6]naphtho[1,2-f]indazol-1-yl methoxyacetate] yielded an IC50 of 1.4 nM.
`C[C@]12Cc3cnn(-c4ccc(F)cc4)c3C=C1CC[C@@H]1[C@@H]2[C@@H](O)C[C@@]2(C)[C@H]1CC[C@]2(OC(=O)c1ccco1)C(=O)OCC#N` [Example 65, Cyanomethyl(1R,3aS,3bS,10aR,10bS,11S,12aS)-7-(4-fluorophenyl)-1-[(furan-2-ylcarbonyl)oxy]-11-hydroxy-10a,12a-dimethyl-1,2,3,3a,3b,4,5,7,10,10a,10b,11,12,12a-tetradecahydrocyclopenta[5,6]naphtho[1,2-f]indazole-1-carboxylate] gave an IC50 of 2.6 nM.
With `C[C@]12Cc3cnn(-c4ccc(F)cc4)c3C=C1CC[C@@H]1[C@@H]2[C@@H](O)C[C@@]2(C)[C@H]1CC[C@]2(OC(=O)c1ccco1)C(=O)SCC(N)=O` [Example 90, (1R,3aS,3bS,10aR,10bS,11S,12aS)-1-{[(2-Amino-2-oxoethyl)sulfanyl]carbonyl}-7-(4-fluorophenyl)-11-hydroxy-10a,12a-dimethyl-1,2,3,3a,3b,4,5,7,10,10a,10b,11,12,12a-tetradecahydrocyclopenta[5,6]naphtho[1,2-f]indazol-1-yl furan-2-carboxylate] the IC50 was 4.6 nM.
For `C[C@]12Cc3cnn(-c4ccc(F)cc4)c3C=C1CC[C@@H]1[C@@H]2[C@@H](O)C[C@@]2(C)[C@H]1CC[C@]2(OC(=O)c1ccoc1)C(=O)SCC#N` [Example 50, (1R,3aS,3bS,10aR,10bS,11S,12aS)-1-{[(Cyanomethyl)thio]carbonyl}-7-(4-fluoro-phenyl)-11-hydroxy-10a,12a-dimethyl-1,2,3,3a,3b,4,5,7,10,10a,10b,11,12,12a-tetradecahydrocyclopenta[5,6]naphtho[1,2-f]indazol-1-yl furan-3-carboxylate], the IC50 was 5.8 nM.
